Laboratory results: ChEMBL document CHEMBL3991601, “The target landscape of clinical kinase drugs” (Science, 2017)
Calls of active or inactive are those of the source.

Key:
[1] = biological target: T1, AarF domain-containing protein kinase 1 (Homo sapiens, UniProt Q86TW2)
T1 sequence (Q86TW2 whole entry): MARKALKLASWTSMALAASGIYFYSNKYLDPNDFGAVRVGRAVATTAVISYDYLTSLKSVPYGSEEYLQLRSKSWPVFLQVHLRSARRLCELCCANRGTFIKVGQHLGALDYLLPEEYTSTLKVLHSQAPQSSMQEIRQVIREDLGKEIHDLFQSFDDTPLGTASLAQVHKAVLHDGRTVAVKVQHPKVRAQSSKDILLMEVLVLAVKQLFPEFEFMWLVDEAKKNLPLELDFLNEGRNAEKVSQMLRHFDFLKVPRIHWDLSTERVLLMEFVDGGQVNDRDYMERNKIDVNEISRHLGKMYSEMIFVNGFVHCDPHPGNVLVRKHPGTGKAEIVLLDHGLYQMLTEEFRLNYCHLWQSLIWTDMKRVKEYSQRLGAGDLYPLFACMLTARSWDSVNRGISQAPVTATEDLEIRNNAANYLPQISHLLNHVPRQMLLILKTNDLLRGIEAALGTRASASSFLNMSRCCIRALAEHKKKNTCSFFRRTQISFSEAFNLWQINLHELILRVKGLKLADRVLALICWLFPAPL

[2] = biological target: T2, Electron transfer flavoprotein subunit beta (Homo sapiens, UniProt P38117)
T2 sequence (P38117 whole entry): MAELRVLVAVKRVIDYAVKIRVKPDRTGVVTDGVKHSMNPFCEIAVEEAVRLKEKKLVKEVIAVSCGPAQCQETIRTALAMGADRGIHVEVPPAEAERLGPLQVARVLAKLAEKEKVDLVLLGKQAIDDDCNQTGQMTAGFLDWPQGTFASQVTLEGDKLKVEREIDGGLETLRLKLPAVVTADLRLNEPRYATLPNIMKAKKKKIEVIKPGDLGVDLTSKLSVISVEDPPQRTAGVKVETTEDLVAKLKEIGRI

[3] = biological target: Putative heat shock protein HSP 90-beta 2 (Homo sapiens, UniProt Q58FF8)
[4] = biological target: T3, Serine/threonine-protein kinase Nek2 (Homo sapiens, UniProt P51955)
T3 sequence (P51955 whole entry): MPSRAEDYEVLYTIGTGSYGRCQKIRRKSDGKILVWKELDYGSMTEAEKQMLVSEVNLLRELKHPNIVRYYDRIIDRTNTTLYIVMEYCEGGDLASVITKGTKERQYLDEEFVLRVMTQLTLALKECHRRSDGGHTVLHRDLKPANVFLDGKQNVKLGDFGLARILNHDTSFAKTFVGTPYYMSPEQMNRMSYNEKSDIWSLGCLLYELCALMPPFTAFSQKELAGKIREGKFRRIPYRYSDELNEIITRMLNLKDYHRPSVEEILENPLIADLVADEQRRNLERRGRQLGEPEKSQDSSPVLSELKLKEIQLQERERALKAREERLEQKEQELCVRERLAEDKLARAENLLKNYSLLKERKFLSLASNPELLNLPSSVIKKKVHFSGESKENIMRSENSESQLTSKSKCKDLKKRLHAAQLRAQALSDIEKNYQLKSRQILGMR

[5] = biological target: T4, Serine/threonine-protein kinase PLK4 (Homo sapiens, UniProt O00444)
T4 sequence (O00444 whole entry): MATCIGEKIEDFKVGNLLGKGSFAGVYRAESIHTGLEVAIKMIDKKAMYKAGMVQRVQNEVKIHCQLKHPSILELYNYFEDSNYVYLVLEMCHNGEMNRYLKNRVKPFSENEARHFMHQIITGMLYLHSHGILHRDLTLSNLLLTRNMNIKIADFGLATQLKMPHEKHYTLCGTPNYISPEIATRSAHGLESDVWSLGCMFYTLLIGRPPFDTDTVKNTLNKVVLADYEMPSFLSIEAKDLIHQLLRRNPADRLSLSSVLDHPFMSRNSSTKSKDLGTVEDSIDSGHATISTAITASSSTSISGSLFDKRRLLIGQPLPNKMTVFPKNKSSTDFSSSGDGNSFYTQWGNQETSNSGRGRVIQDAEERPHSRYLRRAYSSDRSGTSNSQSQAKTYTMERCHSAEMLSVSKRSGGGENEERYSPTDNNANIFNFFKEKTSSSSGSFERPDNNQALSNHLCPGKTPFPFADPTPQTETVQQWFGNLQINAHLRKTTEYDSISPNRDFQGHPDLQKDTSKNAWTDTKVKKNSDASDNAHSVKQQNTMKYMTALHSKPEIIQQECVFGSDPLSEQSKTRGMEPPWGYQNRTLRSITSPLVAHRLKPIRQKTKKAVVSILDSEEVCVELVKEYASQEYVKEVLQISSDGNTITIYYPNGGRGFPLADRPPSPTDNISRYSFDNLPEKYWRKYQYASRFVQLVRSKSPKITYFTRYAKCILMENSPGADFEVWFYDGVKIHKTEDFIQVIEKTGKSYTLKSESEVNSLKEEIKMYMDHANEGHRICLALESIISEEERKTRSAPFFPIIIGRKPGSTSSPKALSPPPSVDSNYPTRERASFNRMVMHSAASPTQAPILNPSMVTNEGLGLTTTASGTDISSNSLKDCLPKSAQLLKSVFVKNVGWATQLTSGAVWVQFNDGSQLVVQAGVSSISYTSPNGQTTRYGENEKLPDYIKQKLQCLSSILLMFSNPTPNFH

[6] = biological target: Rho-associated protein kinase 2 (Homo sapiens, UniProt O75116)
Further: in the data inactive means no Kd found up to 30 µM.

Sequence of Rho-associated protein kinase 2 (O75116 whole entry): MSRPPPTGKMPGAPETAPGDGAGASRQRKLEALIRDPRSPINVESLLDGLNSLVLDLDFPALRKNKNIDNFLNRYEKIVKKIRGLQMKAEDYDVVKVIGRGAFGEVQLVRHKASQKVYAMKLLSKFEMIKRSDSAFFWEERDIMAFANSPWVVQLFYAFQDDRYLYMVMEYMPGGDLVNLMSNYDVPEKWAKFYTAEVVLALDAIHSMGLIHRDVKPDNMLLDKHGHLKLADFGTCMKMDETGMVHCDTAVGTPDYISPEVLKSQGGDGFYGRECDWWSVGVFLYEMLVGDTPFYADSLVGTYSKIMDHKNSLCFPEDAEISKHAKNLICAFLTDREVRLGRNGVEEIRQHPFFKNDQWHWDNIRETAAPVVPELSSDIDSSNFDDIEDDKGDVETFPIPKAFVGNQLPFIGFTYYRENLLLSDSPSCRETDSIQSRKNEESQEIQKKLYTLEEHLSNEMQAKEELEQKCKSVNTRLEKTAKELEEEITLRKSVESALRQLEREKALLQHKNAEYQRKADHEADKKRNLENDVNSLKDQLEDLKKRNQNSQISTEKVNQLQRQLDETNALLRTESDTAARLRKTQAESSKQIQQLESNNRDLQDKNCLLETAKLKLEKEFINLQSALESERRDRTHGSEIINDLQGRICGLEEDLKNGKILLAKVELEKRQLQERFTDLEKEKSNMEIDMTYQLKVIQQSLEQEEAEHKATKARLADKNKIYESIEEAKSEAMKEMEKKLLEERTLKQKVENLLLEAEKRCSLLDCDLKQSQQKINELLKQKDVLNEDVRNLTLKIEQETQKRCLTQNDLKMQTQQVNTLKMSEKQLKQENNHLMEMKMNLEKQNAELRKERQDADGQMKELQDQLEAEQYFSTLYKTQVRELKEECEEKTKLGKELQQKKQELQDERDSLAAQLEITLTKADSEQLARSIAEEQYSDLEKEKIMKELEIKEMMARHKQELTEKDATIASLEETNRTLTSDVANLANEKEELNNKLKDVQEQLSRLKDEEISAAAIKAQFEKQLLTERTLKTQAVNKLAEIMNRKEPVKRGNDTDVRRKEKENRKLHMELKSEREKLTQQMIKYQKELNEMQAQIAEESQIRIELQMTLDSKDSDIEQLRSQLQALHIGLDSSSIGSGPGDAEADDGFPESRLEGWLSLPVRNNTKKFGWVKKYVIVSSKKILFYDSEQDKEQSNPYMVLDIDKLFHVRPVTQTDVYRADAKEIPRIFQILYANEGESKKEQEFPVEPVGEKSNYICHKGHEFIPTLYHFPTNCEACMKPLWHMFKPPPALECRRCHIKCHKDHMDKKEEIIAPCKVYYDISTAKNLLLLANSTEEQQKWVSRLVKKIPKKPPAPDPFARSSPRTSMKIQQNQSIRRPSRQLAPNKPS
Sequence of Putative heat shock protein HSP 90-beta 2 (Q58FF8 whole entry): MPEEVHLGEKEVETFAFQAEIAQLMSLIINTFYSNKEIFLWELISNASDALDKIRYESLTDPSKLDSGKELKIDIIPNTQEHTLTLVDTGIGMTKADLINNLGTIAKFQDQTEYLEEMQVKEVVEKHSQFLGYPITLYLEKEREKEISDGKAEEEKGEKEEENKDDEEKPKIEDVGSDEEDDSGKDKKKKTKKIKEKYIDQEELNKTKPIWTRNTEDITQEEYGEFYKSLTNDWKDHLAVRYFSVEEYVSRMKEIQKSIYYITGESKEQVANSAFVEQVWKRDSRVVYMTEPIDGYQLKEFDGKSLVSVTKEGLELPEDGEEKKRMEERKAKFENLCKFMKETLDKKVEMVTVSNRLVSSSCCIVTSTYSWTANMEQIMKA

| Kd [1] | Kd [2] | Kd [3] | Kd [4] | Kd [5] | Kd [6] | SMILES |
| --- | --- | --- | --- | --- | --- | --- |
| > 30 µM (inactive) | > 30 µM (inactive) | > 30 µM (inactive) | > 30 µM (inactive) | > 30 µM (inactive) | > 30 µM (inactive) | CNS(=O)(=O)Nc1nccc(Cc2c(C)c3ccc(Oc4ncccn4)cc3oc2=O)c1F [AVUTOMETINIB] |
| > 30 µM (inactive) | > 30 µM (inactive) | > 30 µM (inactive) | > 30 µM (inactive) | > 30 µM (inactive) | > 30 µM (inactive) | CCCS(=O)(=O)Nc1ccc(F)c(C(=O)c2c[nH]c3ncc(-c4ccc(Cl)cc4)cc23)c1F [VEMURAFENIB] |
| > 30 µM (inactive) | > 30 µM (inactive) | > 30 µM (inactive) | > 30 µM (inactive) | > 30 µM (inactive) | > 30 µM (inactive) | Cc1cc2c(F)c(Oc3ncnn4cc(OC[C@@H](C)OC(=O)[C@H](C)N)c(C)c34)ccc2[nH]1 [BRIVANIB ALANINATE] |
| > 30 µM (inactive) | > 30 µM (inactive) | > 30 µM (inactive) | > 30 µM (inactive) | 0.07 µM (active) | > 30 µM (inactive) | COc1cc(N2CCC(N3CCN(C)CC3)CC2)ccc1Nc1ncnc(Nc2ccccc2S(=O)(=O)C(C)C)n1 [ASP-3026] |
| > 30 µM (inactive) | > 30 µM (inactive) | > 30 µM (inactive) | > 30 µM (inactive) | > 30 µM (inactive) | > 30 µM (inactive) | CCn1c(=O)c(-c2cc[nH]n2)cc2c(C)nc(N)nc21 [VOXTALISIB] |
| > 30 µM (inactive) | > 30 µM (inactive) | > 30 µM (inactive) | > 30 µM (inactive) | > 30 µM (inactive) | > 30 µM (inactive) | CC(=O)Nc1cccc(-n2c(=O)n(C3CC3)c(=O)c3c(Nc4ccc(I)cc4F)n(C)c(=O)c(C)c32)c1 [TRAMETINIB] |
| > 30 µM (inactive) | > 30 µM (inactive) | > 30 µM (inactive) | > 30 µM (inactive) | > 30 µM (inactive) | > 30 µM (inactive) | CCN1CCN(Cc2ccc(-c3cc4c(N[C@H](C)c5ccccc5)ncnc4[nH]3)cc2)CC1 [AEE-788] |
| > 30 µM (inactive) | > 30 µM (inactive) | > 30 µM (inactive) | > 30 µM (inactive) | > 30 µM (inactive) | > 30 µM (inactive) | CN1CCC(CNc2ccc3ncc(-c4cccc(OC(F)(F)F)c4)n3n2)CC1 [SGI-1776] |
| > 30 µM (inactive) | > 30 µM (inactive) | > 30 µM (inactive) | > 30 µM (inactive) | > 30 µM (inactive) | > 30 µM (inactive) | O=c1sn(-c2cccc3ccccc23)c(=O)n1Cc1ccccc1 [TIDEGLUSIB] |
| > 30 µM (inactive) | > 30 µM (inactive) | > 30 µM (inactive) | > 30 µM (inactive) | > 30 µM (inactive) | > 30 µM (inactive) | CN(C)C(=O)c1cc2cnc(Nc3ccc(N4CCNCC4)cn3)nc2n1C1CCCC1 [RIBOCICLIB] |
| > 30 µM (inactive) | > 30 µM (inactive) | > 30 µM (inactive) | > 30 µM (inactive) | > 30 µM (inactive) | > 30 µM (inactive) | CC[C@H](Nc1ncnc2[nH]cnc12)c1nc2cccc(F)c2c(=O)n1-c1ccccc1 [IDELALISIB] |
| > 30 µM (inactive) | > 30 µM (inactive) | > 30 µM (inactive) | > 30 µM (inactive) | > 30 µM (inactive) | > 30 µM (inactive) | COC(=O)N[C@@H](C)CNc1nccc(-c2cn(C(C)C)nc2-c2cc(Cl)cc(NS(C)(=O)=O)c2F)n1 [ENCORAFENIB] |
| > 30 µM (inactive) | > 30 µM (inactive) | > 30 µM (inactive) | > 30 µM (inactive) | > 30 µM (inactive) | > 30 µM (inactive) | Cn1cc(-c2ccc3nnc(C(F)(F)c4ccc5ncccc5c4)n3n2)cn1 [JNJ-38877605] |
| > 30 µM (inactive) | > 30 µM (inactive) | > 30 µM (inactive) | > 30 µM (inactive) | 1.42 µM (active) | > 30 µM (inactive) | COCCNCc1ccc(-c2cc3nccc(Oc4ccc(NC(=S)NC(=O)Cc5ccc(F)cc5)cc4F)c3s2)nc1 [GLESATINIB] |
| > 30 µM (inactive) | > 30 µM (inactive) | > 30 µM (inactive) | > 30 µM (inactive) | > 30 µM (inactive) | > 30 µM (inactive) | N[C@@H]1CCCN(c2c(/C=C3\SC(=O)NC3=O)cccc2-c2ccccc2)C1 |
| > 30 µM (inactive) | > 30 µM (inactive) | > 30 µM (inactive) | > 30 µM (inactive) | > 30 µM (inactive) | > 30 µM (inactive) | CNC(=O)CN1CCC(Oc2cc3c(Nc4cccc(Cl)c4F)ncnc3cc2OC)CC1 [SAPITINIB] |
| > 30 µM (inactive) | > 30 µM (inactive) | > 30 µM (inactive) | > 30 µM (inactive) | > 30 µM (inactive) | 4.73 µM (active) | Cn1ncc(Cl)c1-c1cc(C(=O)N[C@H](CN)Cc2cccc(F)c2)sc1Cl [AFURESERTIB] |
| > 30 µM (inactive) | > 30 µM (inactive) | > 30 µM (inactive) | > 30 µM (inactive) | > 30 µM (inactive) | > 30 µM (inactive) | CC[C@@H]1C(=O)N(C)c2cnc(Nc3ccc(C(=O)N[C@H]4CC[C@H](N5CCN(CC6CC6)CC5)CC4)cc3OC)nc2N1C(C)C [VOLASERTIB] |

| SMILES | Kd [1] | Kd [2] | Kd [3] | Kd [4] | Kd [5] | Kd [6] |
| --- | --- | --- | --- | --- | --- | --- |
| CN1CC[C@@H](c2c(O)cc(O)c3c(=O)cc(-c4ccccc4Cl)oc23)[C@@H]1CO | > 30 µM (inactive) | > 30 µM (inactive) | > 30 µM (inactive) | > 30 µM (inactive) | > 30 µM (inactive) | > 30 µM (inactive) |
| Cc1cc(-c2cc(O)ccc2Cl)cc2nnc(Nc3ccc(OCCN4CCCC4)cc3)nc12 | > 30 µM (inactive) | > 30 µM (inactive) | > 30 µM (inactive) | > 30 µM (inactive) | > 30 µM (inactive) | > 30 µM (inactive) |
| O=C(c1ccc(F)c(F)c1Nc1ccc(I)cc1F)N1CC(O)([C@@H]2CCCCN2)C1 [COBIMETINIB] | > 30 µM (inactive) | > 30 µM (inactive) | > 30 µM (inactive) | > 30 µM (inactive) | > 30 µM (inactive) | > 30 µM (inactive) |
| CN1CCC(COc2cnc(-c3cccc(Cn4nc(-c5cccc(C#N)c5)ccc4=O)c3)nc2)CC1 [TEPOTINIB] | > 30 µM (inactive) | > 30 µM (inactive) | > 30 µM (inactive) | > 30 µM (inactive) | > 30 µM (inactive) | > 30 µM (inactive) |
